Calls of active or inactive are those of the source. No cut-off for these calls is given here.
Key:
NCI-H23 = assay: Growth inhibition of human NCI-H23 cells at 10 uM after 48 hrs; assay type: functional; settings: NCI-H23, 48 h, read-out: GI
SR = assay: Growth inhibition of human SR cells at 10 uM after 48 hrs; assay type: functional; settings: read-out: GI
Dihydrofolate reductase = biological target: T1, Dihydrofolate reductase (Bos taurus, UniProt P00376); assay: Inhibition of bovine liver DHFR
T1 sequence (P00376 whole entry): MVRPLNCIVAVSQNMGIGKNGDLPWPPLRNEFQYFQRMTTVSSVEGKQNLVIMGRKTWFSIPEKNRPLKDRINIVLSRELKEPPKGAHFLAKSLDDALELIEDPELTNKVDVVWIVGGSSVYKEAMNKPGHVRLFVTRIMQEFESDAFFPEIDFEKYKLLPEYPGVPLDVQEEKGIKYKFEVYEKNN

ACHN = assay: Growth inhibition of human ACHN cells at 10 uM after 48 hrs; assay type: functional; settings: read-out: GI
MCF7 = assay: Growth inhibition of human MCF7 cells at 10 uM after 48 hrs; assay type: functional; settings: MCF7, 48 h, read-out: GI
MDA-MB-231 = assay: Growth inhibition of human MDA-MB-231 cells at 10 uM after 48 hrs; assay type: functional; settings: MDA-MB-231, 48 h, read-out: GI
A498 = assay: Growth inhibition of human A498 cells at 10 uM after 48 hrs; assay type: functional; settings: A498, 48 h, read-out: GI
M14 = assay: Growth inhibition of human M14 cells at 10 uM after 48 hrs; assay type: functional; settings: M14, 48 h, read-out: GI
Escherichia coli = assay: Antimicrobial activity against Escherichia coli assessed as inhibition zone at 200 ug/disk after 24 hrs by disc-diffusion method; assay type: functional; settings: read-out: IZ
CAKI-1 = assay: Growth inhibition of human CAKI-1 cells at 10 uM after 48 hrs; assay type: functional; settings: CAKI-1, 48 h, read-out: GI
[1] = Growth inhibition of human Hs 578T cells at 10 uM after 48 hrs; assay type: functional; settings: read-out: GI
[2] = Growth inhibition of human HCT15 cells at 10 uM after 48 hrs; assay type: functional; settings: HCT-15, 48 h, read-out: GI
[3] = Growth inhibition of human HOP92 cells at 10 uM after 48 hrs; assay type: functional; settings: HOP-92, 48 h, read-out: GI
MDA-MB-468 = assay: Growth inhibition of human MDA-MB-468 cells at 10 uM after 48 hrs; assay type: functional; settings: MDA-MB-468, 48 h, read-out: GI
A549 = assay: Growth inhibition of human A549 cells at 10 uM after 48 hrs; assay type: functional; settings: A549, 48 h, read-out: GI
K562 = assay: Growth inhibition of human K562 cells at 10 uM after 48 hrs; assay type: functional; settings: K562, 48 h, read-out: GI
[4] = Growth inhibition of human SF539 cells at 10 uM after 48 hrs; assay type: functional; settings: SF-539, 48 h, read-out: GI
Pseudomonas aeruginosa = assay: Antimicrobial activity against Pseudomonas aeruginosa assessed as inhibition zone at 200 ug/disk after 24 hrs by disc-diffusion method; assay type: functional; settings: read-out: IZ
[5] = Growth inhibition of human UO31 cells at 10 uM after 48 hrs; assay type: functional; settings: UO-31, 48 h, read-out: GI
[6] = Growth inhibition of human RXF393 cells at 10 uM after 48 hrs; assay type: functional; settings: RXF 393, 48 h, read-out: GI
[7] = Growth inhibition of human UACC257 cells at 10 uM after 48 hrs; assay type: functional; settings: UACC-257, 48 h, read-out: GI
U-251 = assay: Growth inhibition of human U251 cells at 10 uM after 48 hrs; assay type: functional; settings: U-251, 48 h, read-out: GI
SNB-75 = assay: Growth inhibition of human SNB75 cells at 10 uM after 48 hrs; assay type: functional; settings: SNB-75, 48 h, read-out: GI
Bacillus subtilis [8] = assay: Antimicrobial activity against Bacillus subtilis assessed as inhibition zone at 200 ug/disk after 24 hrs by disc-diffusion method; assay type: functional; settings: read-out: IZ
Candida albicans = assay: Antimicrobial activity against Candida albicans assessed as inhibition zone at 200 ug/disk after 24 hrs by disc-diffusion method; assay type: functional; settings: read-out: IZ
[9] = Growth inhibition of human PC3 cells at 10 uM after 48 hrs; assay type: functional; settings: PC-3, 48 h, read-out: GI
KM12 = assay: Growth inhibition of human KM12 cells at 10 uM after 48 hrs; assay type: functional; settings: KM12, 48 h, read-out: GI
[10] = Growth inhibition of human OVCAR3 cells at 10 uM after 48 hrs; assay type: functional; settings: OVCAR-3, 48 h, read-out: GI
[11] = Growth inhibition of human SF295 cells at 10 uM after 48 hrs; assay type: functional; settings: SF-295, 48 h, read-out: GI
[12] = Growth inhibition of human RPMI8226 cells at 10 uM after 48 hrs; assay type: functional; settings: RPMI-8226, 48 h, read-out: GI
[13] = Growth inhibition of human OVCAR4 cells at 10 uM after 48 hrs; assay type: functional; settings: OVCAR-4, 48 h, read-out: GI
[14] = Growth inhibition of human NCI-ADR-RES cells at 10 uM after 48 hrs; assay type: functional; settings: read-out: GI
Staphylococcus aureus [15] = assay: Antimicrobial activity against Staphylococcus aureus assessed as inhibition of visible growth after 24 hrs by disc-diffusion method; assay type: functional, organism-based
CCRF-CEM = assay: Growth inhibition of human CCRF-CEM cells at 10 uM after 48 hrs; assay type: functional; settings: read-out: GI
[16] = Growth inhibition of human LOXIMVI cells at 10 uM after 48 hrs; assay type: functional; settings: LOX IMVI, read-out: GI
[17] = Growth inhibition of human OVCAR8 cells at 10 uM after 48 hrs; assay type: functional; settings: OVCAR-8, 48 h, read-out: GI
T47D = assay: Growth inhibition of human T47D cells at 10 uM after 48 hrs; assay type: functional; settings: read-out: GI
Bacillus subtilis [18] = assay: Antimicrobial activity against Bacillus subtilis assessed as inhibition of visible growth after 24 hrs by disc-diffusion method; assay type: functional, organism-based
Staphylococcus aureus [19] = assay: Antimicrobial activity against Staphylococcus aureus assessed as inhibition zone at 200 ug/disk after 24 hrs by disc-diffusion method; assay type: functional; settings: read-out: IZ
[20] = Growth inhibition of human HCT116 cells at 10 uM after 48 hrs; assay type: functional; settings: HCT-116, 48 h, read-out: GI
NCI-H226 = assay: Growth inhibition of human NCI-H226 cells at 10 uM after 48 hrs; assay type: functional; settings: NCI-H226, 48 h, read-out: GI
SK-MEL-5 = assay: Growth inhibition of human SK-MEL-5 cells at 10 uM after 48 hrs; assay type: functional; settings: SK-MEL-5, 48 h, read-out: GI
[21] = Growth inhibition of human UACC62 cells at 10 uM after 48 hrs; assay type: functional; settings: UACC-62, 48 h, read-out: GI
[22] = Growth inhibition of human MOLT4 cells at 10 uM after 48 hrs; assay type: functional; settings: MOLT-4, 48 h, read-out: GI
SF-268 = assay: Growth inhibition of human SF268 cells at 10 uM after 48 hrs; assay type: functional; settings: SF-268, 48 h, read-out: GI
NCI-H522 = assay: Growth inhibition of human NCI-H522 cells at 10 uM after 48 hrs; assay type: functional; settings: NCI-H522, 48 h, read-out: GI
[23] = Growth inhibition of human COLO205 cells at 10 uM after 48 hrs; assay type: functional; settings: COLO 205, 48 h, read-out: GI
HT-29 = assay: Growth inhibition of human HT-29 cells at 10 uM after 48 hrs; assay type: functional; settings: HT-29, 48 h, read-out: GI
[24] = Growth inhibition of human HCC2998 cells at 10 uM after 48 hrs; assay type: functional; settings: HCC 2998, 48 h, read-out: GI
786-0 = assay: Growth inhibition of human 786-0 cells at 10 uM after 48 hrs; assay type: functional; settings: 786-0, 48 h, read-out: GI
HL-60(TB) = assay: Growth inhibition of human HL-60(TB) cells at 10 uM after 48 hrs; assay type: functional; settings: HL-60, 48 h, read-out: GI
SN12C = assay: Growth inhibition of human SN12C cells at 10 uM after 48 hrs; assay type: functional; settings: read-out: GI
[25] = Growth inhibition of human BT549 cells at 10 uM after 48 hrs; assay type: functional; settings: BT-549, 48 h, read-out: GI
SW-620 = assay: Growth inhibition of human SW620 cells at 10 uM after 48 hrs; assay type: functional; settings: SW-620, 48 h, read-out: GI

Cc1ccc2nc(Sc3sc(N)nc3C)n(Cc3ccccc3)c(=O)c2c1
inhibition of growth at 10 µM (NCI-H23): 19.2%
inhibition of growth at 10 µM (SR): 19%
IC50 (Dihydrofolate reductase): 5 µM
inhibition of growth at 10 µM (ACHN): 19.8%
inhibition of growth at 10 µM (MCF7): 10.7%
inhibition of growth at 10 µM (MDA-MB-231): 14.2%
inhibition of growth at 10 µM (A498): 21.9%
inhibition of growth at 10 µM (M14): 10.3%
zone of inhibition at 200 µg/disc (Escherichia coli): 8 mm
inhibition of growth at 10 µM (CAKI-1): 13.7%
inhibition of growth at 10 µM [1]: 19.4%
inhibition of growth at 10 µM [2]: 13.5%
inhibition of growth at 10 µM [3]: 50.2%
inhibition of growth at 10 µM (MDA-MB-468): 30.1%
inhibition of growth at 10 µM (A549): 22.1%
inhibition of growth at 10 µM (K562): 17.4%
inhibition of growth at 10 µM [4]: 15.1%
zone of inhibition at 200 µg/disc (Pseudomonas aeruginosa): 8 mm
inhibition of growth at 10 µM [5]: 35.5%
inhibition of growth at 10 µM [6]: 17.8%
inhibition of growth at 10 µM [7]: 11.6%
inhibition of growth at 10 µM (U-251): 12.2%
inhibition of growth at 10 µM (SNB-75): 22.7%
zone of inhibition at 200 µg/disc (Bacillus subtilis [8]): 21 mm
zone of inhibition at 200 µg/disc (Candida albicans): 12 mm
inhibition of growth at 10 µM [9]: 34.5%
inhibition of growth at 10 µM (KM12): 18.8%
inhibition of growth at 10 µM [10]: 19.2%
inhibition of growth at 10 µM [11]: 21.9%
inhibition of growth at 10 µM [12]: 28.1%
inhibition of growth at 10 µM [13]: 18.7%
inhibition of growth at 10 µM [14]: 20.3%
Activity (Staphylococcus aureus [15]): Active
inhibition of growth at 10 µM (CCRF-CEM): 14.9%
inhibition of growth at 10 µM [16]: 19.5%
inhibition of growth at 10 µM [17]: 16%
inhibition of growth at 10 µM (T47D): 23.9%
Activity (Bacillus subtilis [18]): Active
zone of inhibition at 200 µg/disc (Staphylococcus aureus [19]): 18 mm
inhibition of growth at 10 µM [20]: 20.7%
inhibition of growth at 10 µM (NCI-H226): 22.7%
inhibition of growth at 10 µM (SK-MEL-5): 25.8%
inhibition of growth at 10 µM [21]: 22.8%
inhibition of growth at 10 µM [22]: 34.2%
inhibition of growth at 10 µM (SF-268): 10.8%

COc1cc2nc(Sc3sc(N)nc3C)n(-c3ccc(Oc4ccccc4)cc3)c(=O)c2cc1OC
IC50 (Dihydrofolate reductase): 6 µM
inhibition of growth at 10 µM (ACHN): 18.5%
inhibition of growth at 10 µM (MCF7): 25.7%
inhibition of growth at 10 µM (A498): 18%
inhibition of growth at 10 µM (M14): 18.5%
zone of inhibition at 200 µg/disc (Escherichia coli): 8 mm
inhibition of growth at 10 µM (NCI-H522): 16.3%
inhibition of growth at 10 µM [1]: 11.6%
inhibition of growth at 10 µM [2]: 20.1%
inhibition of growth at 10 µM [3]: 20.5%
inhibition of growth at 10 µM (MDA-MB-468): 19.9%
inhibition of growth at 10 µM [23]: 24.1%
inhibition of growth at 10 µM (A549): 16.7%
inhibition of growth at 10 µM (HT-29): 25%
inhibition of growth at 10 µM [24]: 19.6%
inhibition of growth at 10 µM (K562): 21.5%
inhibition of growth at 10 µM [4]: 18.7%
zone of inhibition at 200 µg/disc (Pseudomonas aeruginosa): 8 mm
inhibition of growth at 10 µM [5]: 23.9%
inhibition of growth at 10 µM [6]: 14.1%
inhibition of growth at 10 µM [7]: 10.3%
inhibition of growth at 10 µM (786-0): 20%
inhibition of growth at 10 µM (U-251): 12.4%
inhibition of growth at 10 µM (SNB-75): 13.3%
zone of inhibition at 200 µg/disc (Bacillus subtilis [8]): 8 mm
zone of inhibition at 200 µg/disc (Candida albicans): 8 mm
inhibition of growth at 10 µM [9]: 34.9%
inhibition of growth at 10 µM (HL-60(TB)): 21.2%
inhibition of growth at 10 µM [11]: 14.6%
inhibition of growth at 10 µM [12]: 32.4%
inhibition of growth at 10 µM [13]: 49.3%
inhibition of growth at 10 µM [14]: 24.8%
inhibition of growth at 10 µM (SN12C): 20.3%
inhibition of growth at 10 µM (CCRF-CEM): 35.5%
inhibition of growth at 10 µM [16]: 21.7%
inhibition of growth at 10 µM [25]: 28.7%
inhibition of growth at 10 µM [17]: 15%
inhibition of growth at 10 µM (T47D): 22.7%
zone of inhibition at 200 µg/disc (Staphylococcus aureus [19]): 8 mm
inhibition of growth at 10 µM [20]: 52.7%
inhibition of growth at 10 µM (NCI-H226): 10.3%
inhibition of growth at 10 µM (SK-MEL-5): 23.2%
inhibition of growth at 10 µM [21]: 18.6%
inhibition of growth at 10 µM [22]: 46.1%
inhibition of growth at 10 µM (SW-620): 18.8%
